Assay results: paper PMC10584170, “Machine learning-based phenotypic imaging to characterise the targetable biology of Plasmodium falciparum male gametocytes for the development of transmission-blocking antimalarials” (PLOS Pathogens, 2023)
Read-outs that look alike come from different tables or passages of the source.

How the values were obtained:
[1] = system: P. falciparum female gametocytes; assay: P. falciparum Dual Gamete Formation Assay (PfDGFA), female readout (Pfs25-positive female gametes); format: cell-based, Plasmodium falciparum NF54; settings: for inhibition at 2 µM: 24h preincubation with gametocytes
In short: (§1)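 Read-outs are automated image counts of exflagellation centres (brightfield, 10 frames over 1 s) and Pfs25-positive female gametes (Cy3 fluorescence).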

[2] = system: P. falciparum male gametocytes; assay: P. falciparum Dual Gamete Formation Assay (PfDGFA), male readout (exflagellation); format: cell-based, Plasmodium falciparum NF54; settings: for inhibition at 2 µM: 24h preincubation with gametocytes
In short: as §1

[3] = PfDGFA at 2µM, 24h preincubation with gametocytes prior to induction of gametogenesis, replicate R1
[4] = PfDGFA at 2µM, 24h preincubation with gametocytes prior to induction of gametogenesis, replicate R3
[5] = PfDGFA at 2µM, 24h preincubation with gametocytes prior to induction of gametogenesis, replicate R4
[6] = PfDGFA at 2µM, 24h preincubation, average of replicates
[7] = 2µM, 24h preincubation with gametocytes prior to induction of gametogenesis, average of replicates
[8] = 2µM, 24h preincubation with gametocytes prior to induction of gametogenesis, replicate R1
[9] = 2µM, 24h preincubation with gametocytes prior to induction of gametogenesis, replicate R3
[10] = 2µM, 24h preincubation with gametocytes prior to induction of gametogenesis, replicate R4
[11] = 2µM, 24h preincubation, number of replicates with >50% inhibition in the female readout
[12] = 2µM, 24h preincubation, number of replicates with >50% inhibition in the male readout

| Structure (SMILES) | % inhibition female (individual replicates) R1 [1, 3] [%] | % inhibition female (individual replicates) R3 [1, 4] [%] | % inhibition female (individual replicates) R4 [1, 5] [%] | Average inhibition female (%) [1, 6] [%] | % inhibition male (individual replicates) R1 [2, 3] [%] | % inhibition male (individual replicates) R3 [2, 4] [%] | % inhibition male (individual replicates) R4 [2, 5] [%] | Average inhibition male (%) [2, 6] [%] | Average inhibition female (%) [1, 7] [%] | % inhibition female (individual replicates) R1 [1, 8] [%] | % inhibition female (individual replicates) R3 [1, 9] [%] | % inhibition female (individual replicates) R4 [1, 10] [%] | Average inhibition male (%) [2, 7] [%] | % inhibition male (individual replicates) R1 [2, 8] [%] | % inhibition male (individual replicates) R3 [2, 9] [%] | % inhibition male (individual replicates) R4 [2, 10] [%] | further results |
| --- | --- | --- | --- | --- | --- | --- | --- | --- | --- | --- | --- | --- | --- | --- | --- | --- | --- |
| COc1ccccc1CNc1ccnc(N2CC(Oc3ccc(F)cc3)C2)n1 [TCMDC-135118] | 24.5 | -33.1 | 4.4 | 3.5 | 9.0 | -43.0 | 42.2 | 10.3 |  |  |  |  |  |  |  |  |  |
| CN1CCN(CC2(Nc3nccc(NCCc4cn(C)c5ccccc45)n3)CCCCC2)CC1 [TCMDC-135122] |  |  |  |  |  |  |  |  | 24.1 | 17.1 | 12.9 | 28.9 | 31.6 | 31.6 | 5.8 | 52.9 | HitlevelF [1, 11]: 0; HitlevelM [2, 12]: 1 |
| C#C[C@H]1O[C@@H](n2cnc3c(Nc4cc(Br)cc(C(F)(F)F)c4)ncnc32)[C@H](O)[C@@H]1O [TCMDC-135185] |  |  |  |  |  |  |  |  |  |  |  |  |  |  |  |  | Selectivity ratio F ([1]; HepG2 Tox50 versus female IC50): 10; inhibition at 2 µM ([1]; Plasmodium falciparum, 2µM, average of replicates, read-out: Average inhibition female (%)): 3.7%; inhibition at 2 µM ([1]; Plasmodium falciparum, 2µM, replicate R1, read-out: % inhibition female (individual replicates) R1): 8.3%; inhibition at 2 µM ([1]; Plasmodium falciparum, 2µM, replicate R2, read-out: % inhibition female (individual replicates) R2): -2.8%; inhibition at 2 µM ([1]; Plasmodium falciparum, 2µM, replicate R3, read-out: % inhibition female (individual replicates) R3): -10.2%; inhibition at 2 µM ([1]; Plasmodium falciparum, 2µM, replicate R4, read-out: % inhibition female (individual replicates) R4): 19.5%; IC50 ([1]; Plasmodium falciparum, PfDGFA, 24 h incubation with gametocytes before induction, female gamete readout, read-out: Female IC50): > 10000 nM; Selectivity Ratio M ([2]; HepG2 Tox50 versus male IC50): 328.28; inhibition at 2 µM ([2]; Plasmodium falciparum, 2µM, average of replicates, read-out: Average inhibition male (%)): 97%; inhibition at 2 µM ([2]; Plasmodium falciparum, 2µM, replicate R1, read-out: % inhibition male (individual replicates) R1): 97.5%; inhibition at 2 µM ([2]; Plasmodium falciparum, 2µM, replicate R2, read-out: % inhibition male (individual replicates) R2): 96.8%; inhibition at 2 µM ([2]; Plasmodium falciparum, 2µM, replicate R3, read-out: % inhibition male (individual replicates) R3): 98%; inhibition at 2 µM ([2]; Plasmodium falciparum, 2µM, replicate R4, read-out: % inhibition male (individual replicates) R4): 95.6%; IC50 ([2]; Plasmodium falciparum, PfDGFA, 24 h incubation with gametocytes before induction, exflagellation readout, read-out: Male IC50): 300 nM |
| O=C(C1CCCC1)N1CCOC(CCN2CCC(c3ccccc3)CC2)(c2ccc(Cl)c(Cl)c2)C1 (stereo not shown) [TCMDC-135327] | 8.8 | -20.5 | 17.1 | -1.8 | 1.8 | 11.7 | 15.6 | 8.1 |  |  |  |  |  |  |  |  |  |
| O=C(Nc1ccc(C(=O)OCC2CCCCC2)cc1)N[C@@H](Cc1ccc(O)cc1)C(=O)NC1CCN(Cc2ccc(O)cc2)C1.O=C(O)C(F)(F)F (stereo partly shown) [TCMDC-135357] |  |  |  |  |  |  |  |  | 4.9 | 8.9 | 10.5 | 8.3 | -19.1 | -13.6 | -12.1 | -40.5 | HitlevelF ([1]; 2µM, 24h preincubation, hits selected on >50% inhibition in the female readout across replicates): 0; HitlevelM ([2]; 2µM, 24h preincubation, hits selected on >50% inhibition in the male readout across replicates): 0; Activity ([2]; PfDGFA at 2µM, 24h preincubation, hit = >50% inhibition in male or female readout in at least 3 replicates, 0 = no class assigned): 0 |
| C=C[C@]1(C)C[C@@H](OC(=O)CNC[C@@H](O)CN2C[C@H](c3ccnc4ccc(OC)nc34)OC2=O)[C@]2(C)[C@H](C)CC[C@]3(CCC(=O)[C@H]32)[C@@H](C)[C@@H]1O [TCMDC-135366] | -19.6 | -21.7 | -0.7 | -7.1 | -4.9 | -9.1 | 9.5 | -1.6 |  |  |  |  |  |  |  |  |  |
| COc1cc(NC(=O)c2sc(-c3ccc(Cl)cc3)cc2NC(=O)c2cccnc2)ccc1OCCN1CCCC1 [TCMDC-135397] |  |  |  |  |  |  |  |  | 46.9 | 19.3 | 58.0 | 48.0 | 57.2 | 45.5 | 40.3 | 71.6 | HitlevelF [1, 11]: 2; HitlevelM [2, 12]: 2 |
| CCCCN(Cc1cc(Cl)c(OC)c(OC)c1)c1ccc(C(O)(C(F)(F)F)C(F)(F)F)cc1.O=C(O)C(F)(F)F [TCMDC-135446] | 1.9 | -6.9 | 1.5 | -3.4 | -14.8 |  | -29.5 | -22.3 |  |  |  |  |  |  |  |  |  |
